Data on 11 compounds can be found in ChEMBL document CHEMBL1201862, “PubChem BioAssay data set” (2004).

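Compound exposure: 48 hours, 5 concentrations, 96-well plates. GI50 marks 50% less growth.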 Calls of active or inactive are those of the source. Cut-off read from the data, not from the text of the source: active = GI50 up to about 1.1 µM and inactive = higher.

Test systems include HCT-116; NCI-H23; SW-620; OVCAR-5; KM12; RXF 393; HL-60; OVCAR-3; SF-295; A549; SK-OV-3; CCRF-CEM; UACC-257; HOP-62; K562; RPMI-8226; SK-MEL-28; A498; SR; MDA-N.
What all share (experiment): DTP human tumour cell line panel, 48 h

For orientation: GI50 means the concentration that inhibits growth by half. In the case of `CCOC(=O)C1=C(O)C(=O)c2c(OC)ccc(OC)c2C1=O`, the GI50 in the experiment with HCT-116, in the experiment on NCI-H23, in the experiment on SW-620, in the experiment with OVCAR-5, in the experiment with KM12 and with RXF 393 was > 100 µM (inactive) in each case. The GI50 in the experiment on HL-60, with OVCAR-3, in the experiment with SF-295, in the experiment on A549, in the experiment with SK-OV-3 and with CCRF-CEM was > 100 µM (inactive) in each case. Further, the GI50 in the experiment on UACC-257, in the experiment with HOP-62, in the experiment with K562, in the experiment on RPMI-8226, in the experiment with SK-MEL-28 and with A498 was > 100 µM (inactive) each time. Further, the GI50 with SR was > 100 µM (inactive).

As to `CC(=O)CC(N)=O`, the GI50 in the experiment on HCT-116, with NCI-H23, with SW-620, in the experiment with OVCAR-5, in the experiment on KM12 and with RXF 393 was > 100 µM (inactive) in each case. The GI50 in the experiment with HL-60, with OVCAR-3, in the experiment with SF-295, in the experiment on A549, in the experiment with SK-OV-3 and in the experiment with CCRF-CEM was > 100 µM (inactive) each time. For the same compound, the GI50 with UACC-257, in the experiment with HOP-62, in the experiment on K562, with RPMI-8226, in the experiment on SK-MEL-28 and with A498 was > 100 µM (inactive) in each case. In the experiment on SR, the GI50 is > 100 µM (inactive).

Take `COc1ccc(/C=N/NC(=O)c2cnc3[nH]c(=O)n(C)c(=O)c3c2)cc1`: the GI50 was 57.5 µM (inactive) with HCT-116; > 100 µM (inactive) with NCI-H23; > 100 µM (inactive) with SW-620; > 100 µM (inactive) with OVCAR-5; > 100 µM (inactive) in the experiment on KM12; 38.3 µM (inactive) in the experiment on RXF 393. Also, the GI50 with OVCAR-3 is > 100 µM (inactive); with SF-295 it was 46.3 µM (inactive); in the experiment with A549, > 100 µM (inactive); in the experiment with SK-OV-3, 59.2 µM (inactive); in the experiment on CCRF-CEM, > 100 µM (inactive); in the experiment with MDA-N, > 100 µM (inactive). Besides, the GI50 is > 100 µM (inactive) with UACC-257; 44.3 µM (inactive) in the experiment with HOP-62; > 100 µM (inactive) in the experiment on K562; > 100 µM (inactive) in the experiment on RPMI-8226; > 100 µM (inactive) with SK-MEL-28.

Turning to `COc1c(CC(C)=O)c2ccccc2n1C(C)=O`, the GI50 with HCT-116, with NCI-H23, in the experiment on SW-620, in the experiment with KM12, in the experiment on RXF 393 and with HL-60 was > 100 µM (inactive) each time. Besides, the GI50 in the experiment on OVCAR-3, in the experiment on SF-295, in the experiment on A549, in the experiment with SK-OV-3, in the experiment on CCRF-CEM and in the experiment with UACC-257 was > 100 µM (inactive) throughout. For the same compound, the GI50 with HOP-62, in the experiment on K562, in the experiment on RPMI-8226, in the experiment with SK-MEL-28, with A498 and with SR was > 100 µM (inactive) each time.

In the case of `CC1=C(NC(=O)/C(=N/NC(=S)NN)C2C(=O)CC(C)(C)CC2=O)C(=O)c2ccccc2C1=O`, the GI50 was 3.97 µM (inactive) with HCT-116; 5.06 µM (inactive) in the experiment on NCI-H23; 8.49 µM (inactive) in the experiment with SW-620; 22.4 µM (inactive) in the experiment with OVCAR-5; 7.03 µM (inactive) in the experiment with KM12; 17.9 µM (inactive) in the experiment on RXF 393. Moreover, the GI50 was 3.41 µM (inactive) in the experiment with HL-60; 2.3 µM (inactive) in the experiment on OVCAR-3; 13.7 µM (inactive) in the experiment on SF-295; 9.4 µM (inactive) in the experiment on A549; 19.8 µM (inactive) in the experiment on SK-OV-3; 3.56 µM (inactive) in the experiment with CCRF-CEM. In addition, the GI50 in the experiment with UACC-257 was 3.43 µM (inactive); in the experiment with HOP-62, 16.1 µM (inactive); in the experiment on K562 it was 10.6 µM (inactive); in the experiment with RPMI-8226, 10.6 µM (inactive); in the experiment on SK-MEL-28 it was 12.9 µM (inactive); in the experiment on A498, 20.9 µM (inactive). Besides, in the experiment on SR, the GI50 is 3.61 µM (inactive).

As for `O=C1Cc2ccccc2CCc2ccccc21`, the GI50 in the experiment with HCT-116 is > 100 µM (inactive); in the experiment on NCI-H23 it was 74.6 µM (inactive); in the experiment on SW-620, > 100 µM (inactive); in the experiment on OVCAR-5, > 100 µM (inactive); in the experiment with KM12, > 100 µM (inactive); in the experiment on RXF 393, > 100 µM (inactive). The GI50 in the experiment with HL-60 is > 100 µM (inactive); in the experiment with OVCAR-3 it was > 100 µM (inactive); in the experiment with SF-295, 83 µM (inactive); in the experiment on A549, > 100 µM (inactive); with SK-OV-3, > 100 µM (inactive); with CCRF-CEM, > 100 µM (inactive). Besides, the GI50 in the experiment with UACC-257 was > 100 µM (inactive); with HOP-62, > 100 µM (inactive); in the experiment with K562 it was 75.3 µM (inactive); with RPMI-8226 it was 82.4 µM (inactive); in the experiment on SK-MEL-28, > 100 µM (inactive); in the experiment with A498, > 100 µM (inactive). In addition, the GI50 with SR is > 100 µM (inactive).

Regarding `NC(=O)CCC(NC(=O)Cc1ccccc1)C(=O)O` (stereo unspecified), the GI50 in the experiment with HCT-116 is 1090 µM (inactive); in the experiment with NCI-H23 it was > 2470 µM (inactive); in the experiment with SW-620, > 2470 µM (inactive); with OVCAR-5, > 2470 µM (inactive); in the experiment on KM12 it was > 2470 µM (inactive); with RXF 393, 531 µM (inactive). Moreover, the GI50 in the experiment with HL-60 was > 2470 µM (inactive); in the experiment with OVCAR-3 it was > 2470 µM (inactive); in the experiment with SF-295 it was 1740 µM (inactive); with A549, > 2470 µM (inactive); in the experiment on SK-OV-3 it was > 2470 µM (inactive); in the experiment on CCRF-CEM it was 2320 µM (inactive). The GI50 with HOP-62 was 1700 µM (inactive); with K562, > 2470 µM (inactive); in the experiment on RPMI-8226 it was 1030 µM (inactive); with SK-MEL-28, 1160 µM (inactive); in the experiment on A498, > 2470 µM (inactive); in the experiment with SR, > 2470 µM (inactive).

Take `Oc1ccc(-c2c3ccccc3c(-c3ccc(O)cc3)c3ccccc23)cc1`: the GI50 was 87.5 µM (inactive) with HCT-116; > 100 µM (inactive) in the experiment with NCI-H23; > 100 µM (inactive) in the experiment on SW-620; > 100 µM (inactive) in the experiment on OVCAR-5; > 100 µM (inactive) with KM12; > 100 µM (inactive) in the experiment with RXF 393. The GI50 in the experiment with HL-60 is > 100 µM (inactive); with OVCAR-3 it was > 100 µM (inactive); with SF-295, 84.1 µM (inactive); in the experiment on A549, > 100 µM (inactive); in the experiment with SK-OV-3, > 100 µM (inactive); in the experiment with CCRF-CEM it was > 100 µM (inactive). In addition, the GI50 was > 100 µM (inactive) in the experiment with UACC-257; > 100 µM (inactive) in the experiment on HOP-62; > 100 µM (inactive) with K562; 75.2 µM (inactive) in the experiment with RPMI-8226; > 100 µM (inactive) with SK-MEL-28; > 100 µM (inactive) with A498. Further, the GI50 with SR is 64.3 µM (inactive).

For the compound `O=C(c1nc2ccccc2nc1O)C(O)c1ccccc1` (stereo unspecified), the GI50 is > 100 µM (inactive) with HCT-116; > 100 µM (inactive) in the experiment on NCI-H23; 86.9 µM (inactive) in the experiment with SW-620; > 100 µM (inactive) with OVCAR-5; 54.6 µM (inactive) in the experiment on KM12; 61.7 µM (inactive) in the experiment with HL-60. The GI50 was > 100 µM (inactive) in the experiment on OVCAR-3; > 100 µM (inactive) with SF-295; 70.3 µM (inactive) in the experiment on A549; > 100 µM (inactive) with SK-OV-3; 32.7 µM (inactive) in the experiment on CCRF-CEM; > 100 µM (inactive) with UACC-257. Moreover, the GI50 is > 100 µM (inactive) with HOP-62; 40.3 µM (inactive) with K562; 53.5 µM (inactive) in the experiment with RPMI-8226; 29.8 µM (inactive) in the experiment on SK-MEL-28; 39.5 µM (inactive) in the experiment with A498; 86.1 µM (inactive) in the experiment on SR.

For `CC(C)CN1CC(C)C(=O)NC1=O` (stereo unspecified), the GI50 in the experiment on NCI-H23, with SW-620, in the experiment on OVCAR-5, in the experiment with KM12, in the experiment with RXF 393 and with HL-60 was > 100 µM (inactive) each time. Besides, the GI50 with SF-295, in the experiment with A549, in the experiment with SK-OV-3, in the experiment on CCRF-CEM, with UACC-257 and in the experiment on HOP-62 was > 100 µM (inactive) each time. For the same compound, the GI50 in the experiment on K562, in the experiment with SK-MEL-28, in the experiment with A498 and in the experiment on SR was > 100 µM (inactive) throughout.

`NNC(=O)CCC(=O)Nc1cc(Cl)c(Cl)cc1Cl`: the GI50 with HCT-116, in the experiment with NCI-H23, with SW-620, in the experiment with OVCAR-5, in the experiment on KM12 and with RXF 393 was > 100 µM (inactive) each time. Further, the GI50 in the experiment on HL-60 was > 100 µM (inactive); with OVCAR-3 it was 75.2 µM (inactive); in the experiment with SF-295 it was > 100 µM (inactive); in the experiment with A549, > 100 µM (inactive); in the experiment with SK-OV-3, > 100 µM (inactive); with CCRF-CEM, > 100 µM (inactive). Further, the GI50 was > 100 µM (inactive) in the experiment on UACC-257; > 100 µM (inactive) with HOP-62; > 100 µM (inactive) in the experiment with K562; > 100 µM (inactive) in the experiment with RPMI-8226; > 100 µM (inactive) in the experiment with SK-MEL-28; 38.3 µM (inactive) in the experiment on A498. Also, in the experiment with SR, the GI50 is 0.607 µM (active).
